Measured values from ChEMBL document CHEMBL3046275, “EBHU18, a novel derivative of fatty acid bile acid conjugates, prevents cholesterol gallstone formation in experimental mice” (Med Chem Res, 2012).
Calls of active or inactive are those of the source. The rule behind the calls is not given here.

How the values were obtained:
Mus musculus [1] = assay: Protection against lithogenic diet-induced gallstone formation in Mus musculus C57BL/6 (mouse) at 0.5 mg/kg/day, po after 8 weeks by infrared photoacoustic spectroscopic analysis relative to untreated control; format: functional, organism-based
Mus musculus [2] = assay: Reduction of lithogenic diet-induced fatty liver formation in Mus musculus C57BL/6 (mouse) at 0.5 to 3 mg/kg/day, po after 8 weeks by hematoxylin-eosin staining relative to untreated control; format: functional, organism-based
Mus musculus [3] = assay: Protection against lithogenic diet-induced gallstone formation in Mus musculus C57BL/6 (mouse) at 3 mg/kg/day, po after 8 weeks by infrared photoacoustic spectroscopic analysis relative to untreated control; format: functional, organism-based
Mus musculus [4] = assay: Hepatoprotective activity in lithogenic diet-fed Mus musculus C57BL/6 (mouse) assessed as decrease in serum ALT level at 0.5 to 3 mg/kg/day, po after 8 weeks relative to untreated control; format: functional, organism-based
Mus musculus [5] = assay: Toxicity in lithogenic diet-fed Mus musculus C57BL/6 (mouse) assessed as change in body weight at 0.5 mg/kg/day, po followed by lithogenic diet feeding for 8 weeks (reference value: 30.82 +/- 2.88 g); format: organism-based; parameters: route oral; conditions: in vivo, 1344 h
Mus musculus [6] = assay: Hepatoprotective activity in lithogenic diet-fed Mus musculus C57BL/6 (mouse) assessed as decrease in serum total cholesterol level at 0.5 mg/kg/day, po followed by lithogenic diet feeding for 8 weeks (reference value: 2.24 +/- 0.27 mmol/l); format: functional
Mus musculus [7] = assay: Toxicity in lithogenic diet-fed Mus musculus C57BL/6 (mouse) assessed as change in body weight at 3 mg/kg/day, po followed by lithogenic diet feeding for 8 weeks (reference value: 30.82 +/- 2.88 g); format: organism-based; parameters: route oral; conditions: in vivo, 1344 h
Mus musculus [8] = assay: Reduction of lithogenic diet-induced gallstone formation in Mus musculus C57BL/6 (mouse) at 0.5 mg/kg/day, po followed by lithogenic diet feeding for 8 weeks by infrared photoacoustic spectroscopic analysis (reference value: 1.53 +/- 0.63 g); format: functional
Mus musculus [9] = assay: Reduction of lithogenic diet-induced fatty liver formation in Mus musculus C57BL/6 (mouse) at 0.5 to 3 mg/kg/day, po followed by lithogenic diet feeding for 8 weeks by hematoxylin-eosin staining relative to untreated control; format: functional, organism-based
Mus musculus [10] = assay: Reduction of lithogenic diet-induced gallstone formation in Mus musculus C57BL/6 (mouse) at 3 mg/kg/day, po followed by lithogenic diet feeding for 8 weeks by infrared photoacoustic spectroscopic analysis (reference value: 1.53 +/- 0.63 g); format: functional
Mus musculus [11] = assay: Hepatoprotective activity in lithogenic diet-fed Mus musculus C57BL/6 (mouse) assessed as decrease in serum triglyceride level at 3 mg/kg/day, po followed by lithogenic diet feeding for 8 weeks (reference value: 1.01+/- 0.15 mmol/l); format: functional
Mus musculus [12] = assay: Hepatoprotective activity in lithogenic diet-fed Mus musculus C57BL/6 (mouse) assessed as decrease in serum ALT level at 3 mg/kg/day, po followed by lithogenic diet feeding for 8 weeks (reference value: 42.6 +/- 7.63 IU/L); format: functional
Mus musculus [13] = assay: Hepatoprotective activity in lithogenic diet-fed Mus musculus C57BL/6 (mouse) assessed as decrease in serum triglyceride level at 0.5 to 3 mg/kg/day, po after 8 weeks relative to untreated control; format: functional, organism-based
Mus musculus [14] = assay: Hepatoprotective activity in lithogenic diet-fed Mus musculus C57BL/6 (mouse) assessed as decrease in serum ALT level at 0.5 mg/kg/day, po followed by lithogenic diet feeding for 8 weeks (reference value: 42.6 +/- 7.63 IU/L); format: functional
Mus musculus [15] = assay: Hepatoprotective activity in lithogenic diet-fed Mus musculus C57BL/6 (mouse) assessed as decrease in serum total cholesterol level at 0.5 to 3 mg/kg/day, po after 8 weeks relative to untreated control; format: functional, organism-based
Mus musculus [16] = assay: Toxicity in lithogenic diet-fed Mus musculus C57BL/6 (mouse) assessed as change in body weight at 0.5 to 3 mg/kg/day, po after 8 weeks; format: organism-based; parameters: route oral; conditions: in vivo, 1344 h
Mus musculus [17] = assay: Hepatoprotective activity in lithogenic diet-fed Mus musculus C57BL/6 (mouse) assessed as decrease in serum total cholesterol level at 3 mg/kg/day, po followed by lithogenic diet feeding for 8 weeks (reference value: 2.24 +/- 0.27 mmol/l); format: functional
Mus musculus [18] = assay: Hepatoprotective activity in lithogenic diet-fed Mus musculus C57BL/6 (mouse) assessed as decrease in serum triglyceride level at 0.5 mg/kg/day, po followed by lithogenic diet feeding for 8 weeks (reference value: 1.01+/- 0.15 mmol/l); format: functional
Mus musculus [19] = assay: Toxicity in lithogenic diet-fed Mus musculus C57BL/6 (mouse) assessed as change in body weight at 10 mg/kg/day, po after 8 weeks; format: organism-based; parameters: route oral; conditions: in vivo, 1344 h
Mus musculus [20] = assay: Protection against lithogenic diet-induced gallstone formation in Mus musculus C57BL/6 (mouse) at 10 mg/kg/day, po after 8 weeks by infrared photoacoustic spectroscopic analysis relative to untreated control; format: functional, organism-based
Mus musculus [21] = assay: Toxicity in lithogenic diet-fed Mus musculus C57BL/6 (mouse) assessed as change in body weight at 10 mg/kg/day, po followed by lithogenic diet feeding for 8 weeks (reference value: 30.82 +/- 2.88 g); format: organism-based; parameters: route oral; conditions: in vivo, 1344 h
Mus musculus [22] = assay: Hepatoprotective activity in lithogenic diet-fed Mus musculus C57BL/6 (mouse) assessed as decrease in serum triglyceride level at 10 mg/kg/day, po followed by lithogenic diet feeding for 8 weeks (reference value: 1.01+/- 0.15 mmol/l); format: functional
Mus musculus [23] = assay: Reduction of lithogenic diet-induced gallstone formation in Mus musculus C57BL/6 (mouse) at 10 mg/kg/day, po followed by lithogenic diet feeding for 8 weeks by infrared photoacoustic spectroscopic analysis (reference value: 1.53 +/- 0.63 g); format: functional
Mus musculus [24] = assay: Hepatoprotective activity in lithogenic diet-fed Mus musculus C57BL/6 (mouse) assessed as decrease in serum triglyceride level at 10 mg/kg/day, po after 8 weeks relative to untreated control; format: functional, organism-based
Mus musculus [25] = assay: Hepatoprotective activity in lithogenic diet-fed Mus musculus C57BL/6 (mouse) assessed as decrease in serum ALT level at 10 mg/kg/day, po after 8 weeks relative to untreated control; format: functional, organism-based
Mus musculus [26] = assay: Hepatoprotective activity in lithogenic diet-fed Mus musculus C57BL/6 (mouse) assessed as decrease in serum total cholesterol level at 10 mg/kg/day, po after 8 weeks relative to untreated control; format: functional, organism-based
Mus musculus [27] = assay: Reduction of lithogenic diet-induced fatty liver formation in Mus musculus C57BL/6 (mouse) at 10 mg/kg/day, po followed by lithogenic diet feeding for 8 weeks by hematoxylin-eosin staining relative to untreated control; format: functional, organism-based
Mus musculus [28] = assay: Hepatoprotective activity in lithogenic diet-fed Mus musculus C57BL/6 (mouse) assessed as decrease in serum total cholesterol level at 10 mg/kg/day, po followed by lithogenic diet feeding for 8 weeks (reference value: 2.24 +/- 0.27 mmol/l); format: functional
Mus musculus [29] = assay: Hepatoprotective activity in lithogenic diet-fed Mus musculus C57BL/6 (mouse) assessed as decrease in serum ALT level at 10 mg/kg/day, po followed by lithogenic diet feeding for 8 weeks (reference value: 42.6 +/- 7.63 IU/L); format: functional

For `CCCCCCCCCCCCCCCCCCCC(=O)NCCCCC(NC(=O)CC[C@@H](C)[C@H]1CC[C@H]2[C@@H]3C(O)C[C@@H]4C[C@H](O)CC[C@]4(C)[C@H]3C[C@H](O)[C@]12C)C(=O)O` (some centres undefined), the Activity (Mus musculus [1]) was “inactive”, the Activity (Mus musculus [2]) was “Active” and the Activity (Mus musculus [3]) was “Active”. The Activity (Mus musculus [4]) was “Active”, the Activity (Mus musculus [5]) was 31.89 g and the Activity (Mus musculus [6]) was 2.09 mmol/L. For the same compound, the Activity (Mus musculus [7]) was 31.74 g, the Activity (Mus musculus [8]) was 1.02 g and the Activity (Mus musculus [9]) was “Active”. For the same compound, the Activity (Mus musculus [10]) was 0.96 g, the Activity (Mus musculus [11]) was 0.74 mmol/L and the Activity (Mus musculus [12]) was 36.5 IU/L. The Activity (Mus musculus [13]) was “Active”, the Activity (Mus musculus [14]) was 34.8 IU/L and the Activity (Mus musculus [15]) was “Active”. The Activity (Mus musculus [16]) was “Non-toxic”, the Activity (Mus musculus [17]) was 2.04 mmol/L and the Activity (Mus musculus [18]) was 0.76 mmol/L.

`C[C@H](CCC(=O)O)[C@H]1CC[C@H]2[C@@H]3[C@@H](O)C[C@@H]4C[C@H](O)CC[C@]4(C)[C@H]3CC[C@]12C` [URSODIOL] was tested, and the Activity (Mus musculus [19]) was “Non-toxic”, the Activity (Mus musculus [20]) was “inactive” and the Activity (Mus musculus [21]) was 31.76 g. The Activity (Mus musculus [22]) was 0.75 mmol/L, the Activity (Mus musculus [23]) was 1.41 g and the Activity (Mus musculus [24]) was “Active”. For the same compound, the Activity (Mus musculus [25]) was “Active”, the Activity (Mus musculus [26]) was “Active” and the Activity (Mus musculus [27]) was “inactive”. It also gave an Activity (Mus musculus [28]) of 2.16 mmol/L and an Activity (Mus musculus [29]) of 38 IU/L.
